{"source": "paper PMC12210739", "about": "“A sialic acid-binding protein in Toxoplasma gondii contains a conserved globular domain in apicomplexan parasites” (Parasites & Vectors, 2025)", "key": {"[1]": {"tested_on": "TgSABP1-6′SL-PAA interaction", "assay": "Competitive BLI assay of TgSABP1-6′SL-PAA interaction", "type": "binding, Toxoplasma gondii", "details": "5 μM TgSABP1; for Inhibition of binding of recombinant TgSABP1 to 6′SL-PAA: SA 5, 10, 20 mM, lactose 25, 50, 100 mM, oseltamivir phosphate 30, 60 mM", "experimental": "To evaluate small molecule-mediated inhibition of TgSABP1-6′SL-PAA interaction, streptavidin biosensors pre-loaded with 2.4 μM 6′SL-PAA until saturation (threshold ≥ 1.5 nm shift) were subjected to competitive binding assays on an Octet K2 system. Four test compounds were diluted to different concentrations in PBST-BSA, including SA (5, 10, and 20 mM), lactose (25, 50, and 100 mM), oseltamivir phosphate (30 and 60 mM), and eltrombopag (5 and 50 μM). The His-tagged TgSABP1 protein was diluted to 5 μM with different concentrations of compounds and incubated for 15 min at room temperature. The competition binding test included equilibration for 90 s in the compound solution, association for 60–180 s in the pre-treated protein solution, dissociation for 60–90 s in the compound solution, and regeneration [3 × 20 s pulses in HCl (pH 1.0) followed by PBS neutralization]. Data parameters were analyzed by ForteBio Data Analysis software (v 9.0.0.14) using the average reference sensors’ subtraction method and 1:1 binding model. All experiments were repeated in triplicate."}, "[2]": {"tested_on": "T. gondii RH-RFP tachyzoites", "assay": "T. gondii host cell invasion assay in Vero cells", "type": "cell-based", "details": "Toxoplasma gondii", "experimental": "(§1) The anti-invasive activity of eltrombopag against T. gondii was assessed using a fluorescence-based invasion assay with modifications to the established protocols. Toxoplasma gondii RH strains stably expressing red fluorescence protein were added to 2 × 10^5 Vero cells (multiplicity of infection [MOI] of 1:1) pre-treated with the drug or the equivalent volume of DMSO for 1 h. One hour after the parasites were added, the parasites were removed and the cells were gently washed with PBS three times, then incubated with DMEM containing 2% FBS. After 16 h of cultivation, the cells were fixed with 4% PFA and stained with DAPI (Beyotime, Shanghai, China). The numbers of parasitophorous vacuoles (PVs) and host cells were counted in a total of 20 randomly selected fields under a fluorescence microscope (Leica DM4B, Wetzlar, Germany). Invasion efficiency = (number of PVs/number of DAPI^+ cells) × 100%. Meanwhile, the number of parasites in each vacuole was determined. Seventy vacuoles from each coverslip were counted across at least three biological replicates. Intra-vacuolar proliferation was expressed as the mean number of parasites per PV."}, "[3]": {"tested_on": "T. gondii RH-RFP tachyzoites", "assay": "Intra-vacuolar proliferation (parasites per vacuole)", "type": "cell-based, Toxoplasma gondii", "experimental": "as §1"}, "T. gondii": {"tested_on": "T. gondii", "assay": "Anti-parasite activity in vivo"}}, "note": "pIC50: −log10 of the molar value."}
{"compound": "OC[C@H]1O[C@@H](O[C@H]2[C@H](O)[C@@H](O)C(O)O[C@@H]2CO)[C@H](O)[C@@H](O)[C@H]1O", "note": "(mixture of isomers) [lactose]", "values": [{"measurement": "Inhibition of binding of recombinant TgSABP1 to 6′SL-PAA", "setting": "[1]", "result": "did not"}]}
{"compound": "CC(=O)N[C@H]1[C@H]([C@H](O)[C@H](O)CO)OC(O)(C(=O)O)C[C@@H]1O", "note": "(some centres unmarked) [SA, sialic acid]", "values": [{"measurement": "Inhibition of binding of recombinant TgSABP1 to 6′SL-PAA", "setting": "[1]", "result": "exhibited the inhibition on the binding of recombinant TgSABP1 to 6′SL-PAA in a concentration-dependent manner"}]}
{"compound": "CC1=NN(c2ccc(C)c(C)c2)C(=O)/C1=N\\Nc1cccc(-c2cccc(C(=O)O)c2)c1O", "note": "[eltrombopag]", "values": [{"measurement": "Blocking of binding of recombinant TgSABP1 to 6′SL-PAA", "setting": "[1]; 50 μM compound", "result": "significantly blocked"}, {"measurement": "inhibition at 10 µM", "setting": "[2]; 10 μM, vs DMSO control, read-out: Inhibition rate of host cell invasion", "result": 47.8, "unit": "%"}, {"measurement": "inhibition at 20 µM", "setting": "[2]; 20 μM, vs DMSO control, read-out: Inhibition rate of host cell invasion", "result": 57.7, "unit": "%"}, {"measurement": "pIC50", "setting": "[2]; calculated, read-out: IC50 for anti-invasion of T. gondii", "result": 4.93}, {"measurement": "Intracellular parasite replication", "setting": "[3]; 10 μM", "result": "without affecting intracellular parasite replication"}, {"measurement": "Replication of invaded parasites", "setting": "[3]; 20 μM, vs DMSO control", "result": "significantly impaired"}, {"measurement": "Anti-parasite activity in vivo", "setting": "T. gondii", "result": "did not show any anti-parasite activity in vivo"}]}
{"compound": "CCOC(=O)C1=C[C@@H](OC(CC)CC)[C@H](NC(C)=O)[C@@H](N)C1", "note": "[oseltamivir phosphate]", "values": [{"measurement": "Inhibition of binding of recombinant TgSABP1 to 6′SL-PAA", "setting": "[1]", "result": "dose-dependent inhibition"}, {"measurement": "Blocking of binding of recombinant TgSABP1 to 6′SL-PAA", "setting": "[1]; 60 mM compound", "result": "significantly blocked"}]}
